Where a SMILES comes first, the peptide text is derived from it. Bridges are numbered along the chain shown (N, C = ends). [ ]: non-standard residue; d: D form. pGlu = O=C1CC[C@@H](C(=O)O)N1
Key:
[1] = Thermal stability assay (boiling water); assay type: physicochemical; conditions: boiling water (100 °C), quenched in ice bath 15 min, UPLC peak area before/after, monitored by MALDI-MS, three independent experiments, mean (n = 3), read-out: jasmintide remaining after thermal treatment
Description: (§1) For the thermal stability assay, jS3 were heated in boiling water for 1 h. At each time interval (1.0 h), a 30-μL sample was aliquoted and quenched in an ice bath for 15 min. For the acid stability assay, jS3 and jS4 were incubated in hydrochloric acid (pH 2.0) for 6 h. At each time interval (2, 4 and 6 h), a 30-μL sample was aliquoted and quenched by adding 1 M sodium hydroxide. For the enzymatic stability assay, jS3 and jS4 were incubated for 6 h at the optimal temperature with a buffer solution, as recommended by the manufacturer. At each time interval (2, 4 and 6 h), a 30-μL sample was aliquoted and quenched by adding 1 M hydrochloric acid. For the serum stability assay, jS3 were incubated with 25% human AB-type male serum in phenol red-free Dulbecco’s modified Eagle’s medium at 37 °C for 24 h. At each time interval (4, 8, 12 and 24 h), a 30-μL sample was aliquoted and quenched with 96% ethanol. Samples were kept at 4 °C for 15 min and then centrifuged at 18,000 rpm for 10 min. For all stability assays, the reaction mixture was analyzed by UPLC and monitored by MALDI-MS. The areas under the peak prior to and after treatment were integrated to determine stability. For each stability assay, three independent experiments were performed. At each time point, the sample was quenched by the specific reagent aforementioned and analyzed by UPLC in triplicates.

[2] = Acid stability assay (hydrochloric acid, pH 2.0); assay type: physicochemical; conditions: hydrochloric acid pH 2.0, 37 °C, up to 6 h; quenched with 1 M sodium hydroxide; UPLC peak area, MALDI-MS; three independent experiments, mean (n = 3); read-out: jasmintide remaining under acidic conditions
Description: as §1

trypsin = assay: Enzymatic stability assay, endopeptidase trypsin; assay type: in vitro ADME; conditions: 37 °C, manufacturer's buffer, up to 6 h, quenched with 1 M hydrochloric acid, UPLC peak area, MALDI-MS, three independent experiments, mean (n = 3), read-out: jS3 remaining intact with trypsin
Description: as §1

carboxypeptidase A = assay: Enzymatic stability assay, exopeptidase carboxypeptidase A; assay type: in vitro ADME; conditions: 37 °C, manufacturer's buffer, up to 6 h, quenched with 1 M hydrochloric acid, UPLC peak area, MALDI-MS, three independent experiments, mean (n = 3), read-out: jS3 remaining intact with carboxypeptidase A
Description: as §1

[3] = Human serum stability assay; assay type: in vitro ADME; conditions: 25% human AB-type serum; 25% human AB-type male serum in phenol red-free DMEM, 37 °C, up to 24 h; quenched with 96% ethanol; UPLC peak area, MALDI-MS; three independent experiments, mean (n = 3); read-out: jS3 remaining intact after incubation with human serum
Description: as §1

[4] = test system: Tenebrio molitor mealworm larvae; assay: Feeding deterrent no-choice assay; assay type: in vivo; conditions: 24 h, 29 ± 1 °C in the dark, 30 larvae per concentration
Description: The antifeedant activity was examined using a no-choice assay. Oat flakes were soaked in different concentrations of jS3 (0.5 to 30 mg/g of oat) and lyophilized. The control diet was prepared in the same manner without addition of jS3. Ten T. molitor larvae of similar weights (41 ± 3 mg) were placed in a tissue culture dish with 500 mg of oats. The dishes were transferred into a rearing chamber and kept at 29 ± 1 °C in the dark. After 24 h, the remaining oat flakes were weighed, and the amount consumed was calculated. In total, 30 larvae were used for each concentration, and three independent biological experiments were performed. The feeding deterrence activity was determined as follows: Feeding Deterrence IndexFDI=C−T∗100/C+T
where C represents the average weight of consumed control diet and T represents the average weight of consumed treatment diet within the groups. The overall differences in feeding amounts were compared to the control and were compared to each other using one-way ANOVA.

T. molitor larvae = assay: Effect of jasmintide on the growth of larvae; assay type: in vivo, Tenebrio molitor
Description: At day 0, 10 T. molitor larvae of similar weights (43 ± 2 mg and 47 ± 2 mg in the treatment and control sets, respectively) were fed 200 mg of a diet containing 1 mg of jS3/g of oats. Every three days, the weights of individual larva were recorded, and larvae were transferred to a new dish with the same amount of supplemented diet to maintain a continuous supply. Three independent biological experiments were carried out over a period of 9 days. The control diet was prepared in the same manner without the addition of jS3. Student’s t-test was used to compare the mean with the control.

insect Sf9 cells = assay: Co-incubation of insect Sf9 cells with jS3 (morphology, mortality); assay type: cell-based; conditions: concentrations up to 100 μM, co-incubation (Figure S6)

## CC[C@H](C)[C@H](NC(=O)[C@H](CC(N)=O)NC(=O)[C@@H]1CSSC[C@@H]2NC(=O)[C@H](CC(=O)O)NC(=O)[C@H](CCCNC(=N)N)NC(=O)[C@H](CO)NC(=O)[C@H]([C@@H](C)O)NC(=O)[C@H](CCC(N)=O)NC(=O)[C@@H]3CSSC[C@H](NC(=O)[C@H](C(C)C)NC(=O)[C@H]([C@@H](C)O)NC(=O)[C@H](Cc4c[nH]c5ccccc45)NC(=O)[C@H]([C@@H](C)CC)NC(=O)[C@H]([C@@H](C)CC)NC(=O)[C@H](Cc4ccc(O)cc4)NC(=O)[C@H](CC(N)=O)NC2=O)C(=O)N[C@@H](CCCNC(=N)N)C(=O)N[C@@H](CC(=O)O)C(=O)NCC(=O)N[C@@H](CSSC[C@H](NC(=O)[C@H](CC(C)C)NC(=O)[C@@H]2CCC(=O)N2)C(=O)N[C@@H](CC(C)C)C(=O)N[C@@H](CC(C)C)C(=O)N3)C(=O)N1)C(=O)N[C@@H](CO)C(=O)O [jS3] ([pGlu]LCLLCQTSRDCNYIIWTVCRDGCCNIS-OH; disulfide 3-24, 6-20, 12-25; C-terminus assumed)
[1]
  remaining at 1 h: > 92%
[2]
  remaining at 6 h: > 90%
trypsin
  remaining at 6 h: > 80%
Carboxypeptidase A
  remaining at 6 h: > 80%
[3]
  remaining at 24 h: > 79%
[4]; 1 mg/g of jasmintide in the diet (oat flakes), three independent experiments
  feeding deterrence index (FDI): 42.9%
[4]; 30 mg/g of jasmintide in the diet (oat flakes), highest value
  feeding deterrence index (FDI): 93.6%
T. molitor larvae; after nine days on diet containing 1 mg of jS3 per gram of oat flakes, n = 30 larvae, significantly less than control (47.4 to 71.2 mg)
  average body weight of the treatment group after nine-day treatment: 62.2 mg
T. molitor larvae; day 0, diet containing 1 mg of jS3 per gram of oat flakes, n = 30 larvae
  average body weight of the treatment group, start: 44.3 mg
T. molitor larvae; nine-day treatment, 1 mg of jS3 per gram of oat flakes
  fatality of larvae during the period of treatment: No fatality
Insect Sf9 cells
  change in morphology and mortality rate of Sf9 cells: insignificant effects

Reference: paper PMC6042386, “Molecular diversity and function of jasmintides from Jasminum sambac” (BMC Plant Biology, 2018)
